Measured values as given in patent US11744816B2, “Fixed dose combinations and formulations comprising ETC1002 and ezetimibe and methods of treating or reducing the risk of cardiovascular disease” (Esperion Therapeutics, Inc., priority 2015, dated 2023).

How the values were obtained:
[1] = system: hypercholesterolemic patients; assay: Phase 2b double-blind trial: safety, treatment-emergent adverse events and laboratory abnormalities
Experimental: The study population included both statin-tolerant and statin-intolerant participants. Statin intolerance was defined as the inability to tolerate ≥2 statins because of muscle-related symptoms such as pain, weakness, or cramping that began or increased during statin therapy and resolved on statin discontinuation. At least 1 statin must have been administered at the lowest approved daily dose, defined as rosuvastatin 5 mg, atorvastatin 10 mg, simvastatin 10 mg, lovastatin 20 mg, pravastatin 40 mg, fluvastatin 40 mg, or pitavastatin 2 mg. Treatment with less than the lowest approved daily dose of a statin (i.e., skipping days) was considered equivalent to not tolerating 1 statin at the lowest approved daily dose.
Patients underwent a 5-week washout of all lipid-regulating drugs and dietary supplements and abstained from these drugs and supplements throughout the study. Patients also underwent a 5-week patient-only-blinded placebo run-in during the screening period (week −5 to week 0). This single-blind placebo run-in period was used to eliminate patients with muscle-related AEs during placebo treatment. Patients reporting new or worsening, unexplained muscle-related AEs during this run-in period were excluded from the study.
Patients were stratified (1:1) by history of statin intolerance and randomized at week 0 in a 4:4:4:1:1 ratio to once-daily treatment with capsules containing ETC-1002 120 mg, ETC-1002 180 mg, EZE, ETC-1002 120 mg plus EZE, or ETC-1002 180 mg plus EZE.
The safety of ETC-1002 was assessed using treatment-emergent AEs; hematology, serum chemistry, and urinalysis laboratory values; physical examination findings, vital sign measurements, electrocardiogram (ECG) readings; weight; and ankle and waist circumference measurements. AEs were coded using the Medical Dictionary for Regulatory Activities version 16.0 and evaluated by the investigator for severity and relation to study drug. Muscle-related AEs were defined as those from the system organ class of musculoskeletal and connective tissue disorders, except for those that were not obviously muscle related Terms included in the muscle-related AFE analysis were selected from this system organ class after database lock and before unblinding.
Safety analyses were performed on the safety population, which included randomized patients who received at least 1 dose of study drug. Baseline patient characteristics were summarized for the safety population by treatment group and statin-tolerance subgroup.
Muscle-related AEs also were summarized by statin-tolerance subgroup.

[2] = system: hypercholesterolemic patients; assay: Phase 2b double-blind trial: percent changes from baseline to week 12 in lipids and CRP; assay type: in vivo, human
Experimental: LDL-C was calculated using the Friedewald equation.
The primary endpoint was the percent change from baseline to week 12 in calculated LDL-C in patients treated with ETC-1002 monotherapy versus those treated with EZE alone. Secondary endpoints included the dose-response relationship between ETC-1002 and the percent change in LDL-C from baseline to week 12, the percent change in LDL-C from baseline to week 12 in patients treated with ETC-1002 plus EZE versus those treated with EZE alone, and the percent change from baseline to week 12 for all treatment groups in LDL particle number, apolipoprotein B, total cholesterol, non-high-density lipoprotein cholesterol (non-HDL-C), HDL-C, HDL particle number, apolipoprotein A-I, triglycerides, very-low-density lipoprotein (VLDL) particle number, and high-sensitivity C-reactive protein (CRP). Lipoprotein particle number was measured using nuclear magnetic resonance […].
An analysis of covariance was used to compare each ETC-1002 treatment group with EZE monotherapy for each of the efficacy endpoints. The primary model included the effects of treatment and statin intolerance and the baseline value as a covariate. Baseline was defined as the mean of values from weeks −1 and 0 for LDL-C, non-HDL-C, total cholesterol, HDL-C, and triglycerides. For all other lipid and biomarker measures, baseline was defined as the last value before the first dose of study drug. Missing values at week 12 were imputed using the last-observation-carried-forward procedure. When LDL-C could not be calculated (i.e., triglycerides >400 mg/dL), beta-quantification measurements were used to determine LDL-C values. Least-squares (LS) means and standard errors were obtained for each treatment group; differences in LS means and p-values were obtained for the treatment comparisons. Graphical methods (e.g., normal probability plot and histogram of residuals, plot of residuals vs. predicted values) or analytical methods (e.g., Shapiro-Wilk test), or both, were used to assess the model assumptions. Because of departures from normality observed in the parameters of triglycerides, CRP, and VLDL particle number, nonparametric analyses were performed for these measures, with p-values obtained from the Wilcoxon rank-sum test and median values presented.
Percent changes from baseline in LDL-C also were summarized by statin-tolerance subgroup. To assess the dose-response relationship for ETC-1002 monotherapy, the primary analysis of covariance model was used for the comparison of the ETC-1002 120 mg and ETC-1002 180 mg. Statistical testing of the efficacy endpoints was 2-sided and conducted at the 5% level of significance with no adjustment for multiple comparisons.

[3] = EZE 10 mg once daily, 12 weeks, safety population
[4] = EZE 10 mg once daily, 12 weeks, statin-intolerant patients
[5] = EZE 10 mg once daily, 12 weeks, statin-tolerant patients
[6] = EZE 10 mg once daily, 12 weeks, mITT, LS mean ± SE

O=C1[C@H](CC[C@H](O)c2ccc(F)cc2)[C@@H](c2ccc(O)cc2)N1c1ccc(F)cc1 [EZE, (3R,4S)-1-(4-fluorophenyl)-3-[(3S)-3-(4-fluorophenyl)-3-hydroxypropyl]-4-(4-hydroxyphenyl)azetidin-2-one, reference compound]
Alanine aminotransferase or aspartate aminotransferase, or both, increased >3 times the upper limit of normal at any measurement ([1]; EZE): 1 patients
Serious AEs reported (events) ([1]; EZE): transient ischemic attack
Most common AEs: ALT increased [1, 3]: 1 (1%) n (%)
Most common AEs: AST increased [1, 3]: 0 n (%)
Most common AEs: Arthralgia [1, 3]: 4 (4%) n (%)
Most common AEs: Back pain [1, 3]: 8 (8%) n (%)
Most common AEs: Blood CK increased [1, 3]: 1 (1%) n (%)
Most common AEs: Constipation [1, 3]: 1 (1%) n (%)
Most common AEs: Headache [1, 3]: 1 (1%) n (%)
Most common AEs: Myalgia [1, 3]: 6 (6%) n (%)
Most common AEs: Nasopharyngitis [1, 3]: 4 (4%) n (%)
Most common AEs: Upper respiratory tract infection [1, 3]: 1 (1%) n (%)
Most common AEs: Urinary tract infection [1, 3]: 6 (6%) n (%)
Treatment-emergent AEs: Any AE(s) [1, 3]: 53 (54%) n (%)
Treatment-emergent AEs: Discontinuation due to AE(s) [1, 3]: 8 (8%) n (%)
Treatment-emergent AEs: Serious AE(s) [1, 3]: 1 (1%) n (%)
Treatment-emergent AEs: Study drug-related AE(s) [1, 3]: 19 (19%) n (%)
Any muscle-related AE [1, 4]: 9 (18%) n (%)
Muscle-related AE leading to discontinuation [1, 4]: 5 (10%) n (%)
Muscle-related AEs: Muscle spasms [1, 4]: 1 (2%) n (%)
Muscle-related AEs: Muscular weakness [1, 4]: 1 (2%) n (%)
Muscle-related AEs: Musculoskeletal chest pain [1, 4]: 0 n (%)
Muscle-related AEs: Musculoskeletal stiffness [1, 4]: 1 (2%) n (%)
Muscle-related AEs: Myalgia [1, 4]: 6 (12%) n (%)
Muscle-related AEs: Pain in extremity [1, 4]: 3 (6%) n (%)
Muscle-related AEs: Sensation of heaviness [1, 4]: 1 (2%) n (%)
Any muscle-related AE [1, 5]: 3 (6%) n (%)
Muscle-related AE leading to discontinuation [1, 5]: 1 (2%) n (%)
Muscle-related AEs: Muscle spasms [1, 5]: 2 (4%) n (%)
Muscle-related AEs: Musculoskeletal pain [1, 5]: 1 (2%) n (%)
Muscle-related AEs: Myalgia [1, 5]: 0 n (%)
Myalgia, patients affected ([1]; EZE alone, entire study population): 6%
Percent change from baseline to week 12 in Apolipoprotein A-I [2, 6]: 2.0 ± 1.1%
Percent change from baseline to week 12 in Apolipoprotein B [2, 6]: −15.2 ± 1.2%
Percent change from baseline to week 12 in HDL particle number [2, 6]: 6.7 ± 1.3%
Percent change from baseline to week 12 in HDL-C [2, 6]: 5.0 ± 1.4%
Percent change from baseline to week 12 in LDL particle number [2, 6]: −12.7 ± 1.7%
Percent change from baseline to week 12 in LDL-C [2, 6]: −21.2 ± 1.3%
Percent change from baseline to week 12 in Non-HDL-C [2, 6]: −18.7 ± 1.2%
Percent change from baseline to week 12 in Total cholesterol [2, 6]: −14.3 ± 0.9%
Percent change from baseline to week 12 in VLDL particle number ([2]; EZE 10 mg once daily, 12 weeks, mITT, median (interquartile range)): −12.6 (63.4) %
CRP reduction ([2]; EZE alone): 10%
HDL-C increase ([2]; EZE alone, week 12): 5%
